Converted amounts (≈) assume the structure as drawn. Each block holds one compound with its values, some of them ahead of it.
Experiments:
[1] = molecular target: T1, Monocarboxylate transporter 4 (Homo sapiens, UniProt O15427)
T1 sequence (O15427 whole entry): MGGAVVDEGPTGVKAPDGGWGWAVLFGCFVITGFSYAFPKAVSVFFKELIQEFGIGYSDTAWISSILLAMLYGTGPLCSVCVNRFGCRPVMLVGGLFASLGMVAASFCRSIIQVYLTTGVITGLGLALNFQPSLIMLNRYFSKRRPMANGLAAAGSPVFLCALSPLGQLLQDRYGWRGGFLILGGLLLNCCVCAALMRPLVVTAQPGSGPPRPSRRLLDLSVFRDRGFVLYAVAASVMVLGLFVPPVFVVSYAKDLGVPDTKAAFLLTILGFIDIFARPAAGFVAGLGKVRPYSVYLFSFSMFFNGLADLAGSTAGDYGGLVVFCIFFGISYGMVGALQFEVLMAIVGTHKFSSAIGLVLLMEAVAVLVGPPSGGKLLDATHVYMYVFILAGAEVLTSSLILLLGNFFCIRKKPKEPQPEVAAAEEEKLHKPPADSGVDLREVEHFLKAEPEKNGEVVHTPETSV

[2] = molecular target: T2, Monocarboxylate transporter 1 (Homo sapiens, UniProt P53985)
T2 sequence (P53985 whole entry): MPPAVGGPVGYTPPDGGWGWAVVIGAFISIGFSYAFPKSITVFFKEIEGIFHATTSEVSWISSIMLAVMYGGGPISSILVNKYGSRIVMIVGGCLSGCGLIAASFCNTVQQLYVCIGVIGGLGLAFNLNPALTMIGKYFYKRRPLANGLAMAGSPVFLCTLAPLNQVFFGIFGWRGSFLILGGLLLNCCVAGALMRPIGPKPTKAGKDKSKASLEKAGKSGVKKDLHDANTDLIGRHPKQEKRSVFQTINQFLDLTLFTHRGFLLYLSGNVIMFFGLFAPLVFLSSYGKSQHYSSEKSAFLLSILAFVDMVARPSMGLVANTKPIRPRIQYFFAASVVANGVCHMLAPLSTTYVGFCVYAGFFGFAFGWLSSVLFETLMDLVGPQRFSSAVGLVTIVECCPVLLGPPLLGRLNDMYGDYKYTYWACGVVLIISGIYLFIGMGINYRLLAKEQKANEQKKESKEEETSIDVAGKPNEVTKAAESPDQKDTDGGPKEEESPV

[3] = molecular target: T3, Carbonic anhydrase 2 (Homo sapiens, UniProt P00918)
[4] = molecular target: T4, Carbonic anhydrase 9 (Homo sapiens, UniProt Q16790)
[5] = system: MCF7; assay: cells; settings: Homo sapiens, MCF7, 72 h
[6] = molecular target: T4, Carbonic anhydrase 9; remark: listed apart in the source
[7] = system: MCF7; assay: cells; settings: Homo sapiens, MCF7, 96 h
[8] = molecular target: T4, Carbonic anhydrase 9; remark: listed apart in the source
[9] = molecular target: T3, Carbonic anhydrase 2; remark: listed apart in the source
[10] = molecular target: T3, Carbonic anhydrase 2; remark: listed apart in the source
[11] = molecular target: T4, Carbonic anhydrase 9; remark: listed apart in the source
[12] = molecular target: 72 kDa type IV collagenase (Homo sapiens, UniProt P08253); assay: Inhibition of MMP2 (unknown origin)
72 kDa type IV collagenase, sequence (P08253 whole entry): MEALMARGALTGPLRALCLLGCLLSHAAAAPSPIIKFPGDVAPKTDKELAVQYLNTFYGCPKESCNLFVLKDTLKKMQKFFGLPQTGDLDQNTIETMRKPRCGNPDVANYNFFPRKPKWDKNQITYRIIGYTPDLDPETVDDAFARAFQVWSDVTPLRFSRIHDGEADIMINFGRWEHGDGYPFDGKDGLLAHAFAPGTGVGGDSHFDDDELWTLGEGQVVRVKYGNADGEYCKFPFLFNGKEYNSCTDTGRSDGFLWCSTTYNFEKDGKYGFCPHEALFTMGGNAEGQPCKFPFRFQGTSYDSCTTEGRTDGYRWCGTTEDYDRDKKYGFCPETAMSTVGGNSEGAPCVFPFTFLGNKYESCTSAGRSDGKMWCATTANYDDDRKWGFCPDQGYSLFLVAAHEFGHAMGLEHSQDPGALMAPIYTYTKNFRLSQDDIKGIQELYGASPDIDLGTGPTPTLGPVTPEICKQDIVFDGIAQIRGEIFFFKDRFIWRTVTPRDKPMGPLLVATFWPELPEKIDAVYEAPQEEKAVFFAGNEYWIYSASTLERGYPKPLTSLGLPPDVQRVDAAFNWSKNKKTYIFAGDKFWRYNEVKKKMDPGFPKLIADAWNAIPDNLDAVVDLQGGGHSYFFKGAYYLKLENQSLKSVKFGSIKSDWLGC

[13] = molecular target: T4, Carbonic anhydrase 9; remark: listed apart in the source
[14] = system: MCF7; assay: cells; settings: Homo sapiens, MCF7, 72 h; remark: listed apart in the source
[15] = system: SK-OV-3; assay: cells; settings: Homo sapiens
[16] = system: BT-549; assay: cells; settings: Homo sapiens
[17] = system: KB; assay: cells; settings: Homo sapiens
[18] = system: SK-MEL; assay: cells; settings: Homo sapiens
[19] = molecular target: T3, Carbonic anhydrase 2; remark: listed apart in the source
[20] = molecular target: T4, Carbonic anhydrase 9; remark: listed apart in the source
[21] = molecular target: Carbonic anhydrase 1 (Homo sapiens, UniProt P00915)
Carbonic anhydrase 1, sequence (P00915 whole entry): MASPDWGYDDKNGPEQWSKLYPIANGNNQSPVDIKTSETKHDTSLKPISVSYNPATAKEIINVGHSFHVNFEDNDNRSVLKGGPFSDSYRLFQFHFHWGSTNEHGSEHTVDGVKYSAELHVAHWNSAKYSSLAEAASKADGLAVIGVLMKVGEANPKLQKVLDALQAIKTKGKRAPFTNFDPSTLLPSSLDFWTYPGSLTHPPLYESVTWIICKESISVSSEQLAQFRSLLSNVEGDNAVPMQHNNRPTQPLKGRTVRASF

IC50 [1]: 40 nM | IC50 [2]: 2500 nM
Structure (SMILES): CCOC(=O)Oc1c(OC)cc(C(=O)O[C@@H]2C[C@@H]3CN4CCc5c([nH]c6cc(OC)ccc56)[C@H]4C[C@@H]3[C@H](C(=O)OC)[C@H]2OC)cc1OC [SYROSINGOPINE]

Ki [3]: > 10 µM | Ki [4]: 215 nM
Structure (SMILES): CC(C)n1nc(C(=O)Nc2ccc3c(c2)C=CS(=O)(=O)O3)c2ccccc21

IC50 [5]: 11.1 µM | Ki [6]: 1.25 nM | IC50 [7]: 7.02 µM
Structure (SMILES): C=C(C)[C@@H]1CC[C@]2(COS(N)(=O)=O)CC[C@]3(C)[C@H](CC[C@@H]4[C@@]5(C)CC[C@H](OC(C)=O)C(C)(C)[C@@H]5CC[C@]43C)[C@@H]12

Ki [8]: 27.5 nM | Ki [9]: > 10 µM | Ki [10]: > 10 µM | Ki [11]: 27.5 nM
Structure (SMILES): CC(C)(O)[C@@H](O)COc1c2occc2cc2ccc(=O)oc12

IC50 [12]: 15 µM | IC50 [13]: 6.22 µM
Structure (SMILES): N[C@H](CNC(=O)P(=O)(O)O)CNS(=O)(=O)c1ccc(Oc2ccccc2)cc1

Structure (SMILES): C=C(C)[C@@H]1CC[C@]2(C(=O)O)CC[C@]3(C)[C@H](CC[C@@H]4[C@@]5(C)CC[C@H](O)C(C)(C)[C@@H]5CC[C@]43C)[C@@H]12 [BETULINIC ACID]
IC50 [7]: 14 µM | IC50 [14]: 16.4 µM

IC50 [15]: > 10 µg/mL | IC50 [16]: 9.4 µg/mL (≈ 23.7 µM) | IC50 [17]: 8 µg/mL (≈ 20.2 µM) | IC50 [18]: 9 µg/mL (≈ 22.7 µM)
Structure (SMILES): COc1cc(/C=C/C(=O)O)ccc1OCc1cn(-c2cccc([N+](=O)[O-])c2)nn1

Ki [19]: 33 nM | Ki [20]: 6.5 nM | IC50 [21]: 65 nM
Structure (SMILES): NS(=O)(=O)c1ccc(N=C2C(=O)Nc3ccccc32)cc1
